Source: PubChem BioAssay AID248 (DTP/NCI, 2004)
Where “and” joins values, the source holds several entries; their conditions need not be identical. Equal entries are not always repeated. Toxic doses and inconclusive results are not listed. Cut-off read from the data, not from the text of the source: active = T/C of 150% or more; inactive = T/C below 125%.

System: L1210 leukemia ip in BDF1 mice, survival T/C
Assay: NCI In Vivo Anticancer Drug Screen. Data for tumor model L1210 Leukemia (intraperitoneal) in B6D2F1 (BDF1) mice
Conditions: endpoint: mean survival time, higher = longer survival
Procedure, shortened: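 In this screen, tumor-bearing mice given compound are compared to those given vehicle, and their survival values are reported as a treated-to-control quotient.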

[1] = dose: 100.0 mg/kg/injection, schedule: Q01DX001 (ip), vehicle: saline with Tween-80
[2] = dose: 200.0 mg/kg/injection, schedule: Q01DX001 (ip), vehicle: saline with Tween-80
[3] = dose: 50.0 mg/kg/injection, schedule: Q01DX001 (ip), vehicle: saline
[4] = dose: 100.0 mg/kg/injection, schedule: Q01DX001 (ip), vehicle: saline
[5] = dose: 200.0 mg/kg/injection, schedule: Q01DX001 (ip), vehicle: saline
[6] = dose: 400.0 mg/kg/injection, schedule: Q01DX001 (ip), vehicle: saline
[7] = dose: 100.0 mg/kg/injection, schedule: Q04DX002 (ip), vehicle: saline
[8] = dose: 200.0 mg/kg/injection, schedule: Q04DX002 (ip), vehicle: saline
[9] = dose: 400.0 mg/kg/injection, schedule: Q04DX002 (ip), vehicle: saline
[10] = dose: 25.0 mg/kg/injection, schedule: Q04DX003 (ip), vehicle: saline with Tween-80
[11] = dose: 50.0 mg/kg/injection, schedule: Q04DX003 (ip), vehicle: saline with Tween-80
[12] = dose: 100.0 mg/kg/injection, schedule: Q04DX003 (ip), vehicle: saline with Tween-80
[13] = dose: 50.0 mg/kg/injection, schedule: Q01DX009 (ip), vehicle: saline
[14] = dose: 100.0 mg/kg/injection, schedule: Q01DX009 (ip), vehicle: saline
[15] = dose: 200.0 mg/kg/injection, schedule: Q01DX009 (ip), vehicle: saline

Measured: T/C

O=C(CCN1CC1)Nc1ccc(Cl)c(Cl)c1
inactive: dose: 20.0 mg/kg/injection, schedule: Q04DX003 (ip), vehicle: Klucel (hydroxypropylcellulose) (HPC) 88 % of control | dose: 25.0 mg/kg/injection, schedule: Q01DX009 (ip), vehicle: Klucel (hydroxypropylcellulose) (HPC) 98 % of control | dose: 40.0 mg/kg/injection, schedule: Q04DX003 (ip), vehicle: Klucel (hydroxypropylcellulose) (HPC) 98 % of control | dose: 50.0 mg/kg/injection, schedule: Q01DX009 (ip), vehicle: Klucel (hydroxypropylcellulose) (HPC) 101 % of control | dose: 80.0 mg/kg/injection, schedule: Q04DX003 (ip), vehicle: Klucel (hydroxypropylcellulose) (HPC) 92 % of control | dose: 100.0 mg/kg/injection, schedule: Q04DX003 (ip), vehicle: Klucel (hydroxypropylcellulose) (HPC) 86 % of control

Nc1ncnc(N)c1[N+](=O)[O-]
inactive: dose: 125.0 mg/kg/injection, schedule: Q01DX Z (ip), vehicle: methylcellulose (MC) 88 % of control

CCCCCCCCc1ccc(NNC(N)=S)cc1
inactive: dose: 3.12 mg/kg/injection, schedule: Q01DX009 (ip), vehicle: saline 93 % of control | dose: 6.25 mg/kg/injection, schedule: Q01DX009 (ip), vehicle: saline 101 % of control and 92 % of control | dose: 12.5 mg/kg/injection, schedule: Q01DX009 (ip), vehicle: saline 103 % of control | dose: 25.0 mg/kg/injection, schedule: Q01DX009 (ip), vehicle: saline 100 % of control

C1CCC(CCC(CCCC2CCCC2)CCCC2CCCC2)CC1
inactive: [1] 97 % of control | [2] 92 % of control | dose: 400.0 mg/kg/injection, schedule: Q01DX001 (ip), vehicle: saline with Tween-80 101 % of control

Brc1n[nH]c(Br)n1
inactive: dose: 100.0 mg/kg/injection, schedule: Q01DX009 (ip), vehicle: saline with Tween-80 93 % of control | dose: 200.0 mg/kg/injection, schedule: Q01DX009 (ip), vehicle: saline with Tween-80 93 % of control | dose: 400.0 mg/kg/injection, schedule: Q01DX009 (ip), vehicle: saline with Tween-80 91 % of control

NC(=O)C1=CNCCC1
inactive: dose: 6.25 mg/kg/injection, schedule: Q01DX001 (ip), vehicle: saline 98 % of control | dose: 12.5 mg/kg/injection, schedule: Q01DX001 (ip), vehicle: saline 104 % of control | dose: 25.0 mg/kg/injection, schedule: Q01DX001 (ip), vehicle: saline 101 % of control | [3] 93 % of control and 118 % of control | [4] 114 % of control | [5] 109 % of control | [6] 118 % of control

COc1ccccc1N1C(=O)CC(Sc2ccccc2N)C1=O (stereo not drawn)
inactive: dose: 100.0 mg/kg/injection, schedule: Q01DX009 (ip), vehicle: saline sonified 95 % of control | dose: 100.0 mg/kg/injection, schedule: Q04DX003 (ip), vehicle: saline sonified 87 % of control | dose: 200.0 mg/kg/injection, schedule: Q01DX009 (ip), vehicle: saline sonified 88 % of control | dose: 200.0 mg/kg/injection, schedule: Q04DX003 (ip), vehicle: saline sonified 94 % of control | dose: 400.0 mg/kg/injection, schedule: Q01DX009 (ip), vehicle: saline sonified 93 % of control | dose: 400.0 mg/kg/injection, schedule: Q04DX003 (ip), vehicle: saline sonified 96 % of control

CCOC(=O)/C(N=O)=C(\O)c1ccc2ccccc2n1
inactive: dose: 25.0 mg/kg/injection, schedule: Q01DX009 (ip), vehicle: water 115 % of control | dose: 50.0 mg/kg/injection, schedule: Q01DX009 (ip), vehicle: water 101 % of control | dose: 100.0 mg/kg/injection, schedule: Q01DX009 (ip), vehicle: water 108 % of control | dose: 200.0 mg/kg/injection, schedule: Q01DX009 (ip), vehicle: water 89 % of control | dose: 400.0 mg/kg/injection, schedule: Q01DX009 (ip), vehicle: water 94 % of control

COC(=O)C1=C2c3ccccc3NC(=O)N2NC1C(=O)OC (stereo not drawn)
inactive: dose: 50.0 mg/kg/injection, schedule: Q04DX002 (ip), vehicle: saline 108 % of control | [7] 90 % of control | [8] 90 % of control

COC(=O)c1cccc2c1C1CCC2c2cccc(C(=O)OC)c21
inactive: dose: 100.0 mg/kg/injection, schedule: Q04DX002 (ip), vehicle: gum acacia 101 % of control | dose: 200.0 mg/kg/injection, schedule: Q04DX002 (ip), vehicle: gum acacia 96 % of control | dose: 400.0 mg/kg/injection, schedule: Q04DX002 (ip), vehicle: gum acacia 99 % of control

COc1ccc(C(=O)OCc2ccccc2CN2CCCCC2C)cc1 (stereo not drawn)
inactive: [7] 94 % of control | [8] 108 % of control | [9] 86 % of control

CCOC(=O)C1=NN(c2ccccc2)C(=O)C1N=Nc1ccc(S(N)(=O)=O)cc1 (stereo not drawn)
inactive: [4] 95 % of control | [5] 93 % of control | [6] 93 % of control

CCSC1OC(C(COC(C)=O)OC(C)=O)C(OC(C)=O)C1SCC (stereo not drawn)
inactive: dose: 100.0 mg/kg/injection, schedule: Q04DX003 (ip), vehicle: other 97 % of control | dose: 200.0 mg/kg/injection, schedule: Q04DX003 (ip), vehicle: other 103 % of control | dose: 400.0 mg/kg/injection, schedule: Q04DX003 (ip), vehicle: other 101 % of control

NC(N)=N/C(N)=N/NC(=O)c1ccncc1
inactive: dose: 66.0 mg/kg/injection, schedule: Q01DX Z (ip), vehicle: methylcellulose (MC) 100 % of control | dose: 93.0 mg/kg/injection, schedule: Q01DX Z (ip), vehicle: methylcellulose (MC) 89 % of control | dose: 140.0 mg/kg/injection, schedule: Q01DX Z (ip), vehicle: methylcellulose (MC) 91 % of control

COc1ccc(/C=C(\CCCOC(C)=O)[N+](=O)[O-])cc1
inactive: [4] 100 % of control | [5] 111 % of control | [6] 113 % of control

O=C(c1ccccc1)C1C(c2ccccc2)OP(c2ccccc2)(c2ccccc2)(c2ccccc2)C1c1ccccc1 (stereo not drawn)
inactive: dose: 6.25 mg/kg/injection, schedule: Q04DX003 (ip), vehicle: saline with Tween-80 102 % of control | dose: 12.5 mg/kg/injection, schedule: Q01DX009 (ip), vehicle: saline with Tween-80 97 % of control | [10] 94 % of control

CN1CN(c2ccccc2)C2(CCN(c3nc4ccccc4s3)CC2)C1=O
inactive: dose: 100.0 mg/kg/injection, schedule: Q01DX001 (ip), vehicle: Klucel (hydroxypropylcellulose) (HPC) 91 % of control | dose: 200.0 mg/kg/injection, schedule: Q01DX001 (ip), vehicle: Klucel (hydroxypropylcellulose) (HPC) 94 % of control | dose: 400.0 mg/kg/injection, schedule: Q01DX001 (ip), vehicle: Klucel (hydroxypropylcellulose) (HPC) 96 % of control

CCCCOC1OCN(C(C)(C)C)CC1(C)C (stereo not drawn)
inactive: [7] 104 % of control | [8] 112 % of control | [9] 101 % of control

Nc1ncnc(N)c1NC(=O)c1ccc(OCCOc2ccccc2)c(Cl)c1
inactive: [10] 89 % of control | [11] 93 % of control | [12] 98 % of control

COc1ccc(NC(=O)Nc2ccc(C)cc2C)cc1
inactive: [12] 93 % of control | dose: 200.0 mg/kg/injection, schedule: Q04DX003 (ip), vehicle: saline with Tween-80 90 % of control | dose: 400.0 mg/kg/injection, schedule: Q04DX003 (ip), vehicle: saline with Tween-80 95 % of control

O=C(O)c1ccccc1C(=O)Nc1ccc([N+](=O)[O-])cc1
inactive: [10] 93 % of control | [11] 90 % of control | [12] 98 % of control

C[n+]1ccc(C=O)cc1
inactive: [3] 102 % of control | [13] 104 % of control and 109 % of control | dose: 50.0 mg/kg/injection, schedule: Q04DX003 (ip), vehicle: saline 103 % of control | [4] 105 % of control | [14] 102 % of control and 117 % of control | [7] 94 % of control and 107 % of control | dose: 100.0 mg/kg/injection, schedule: Q04DX003 (ip), vehicle: saline 101 % of control | [5] 105 % of control | [15] 106 % of control and 120 % of control | [8] 102 % of control and 104 % of control | dose: 200.0 mg/kg/injection, schedule: Q04DX003 (ip), vehicle: saline 94 % of control | [9] 98 % of control and 100 % of control

COc1ccc(OC=O)cc1OC
inactive: [13] 98 % of control | [14] 102 % of control | dose: 100.0 mg/kg/injection, schedule: Q04DX003 (ip), vehicle: acetone 97 % of control | [15] 101 % of control | dose: 200.0 mg/kg/injection, schedule: Q04DX003 (ip), vehicle: acetone 107 % of control

CCCP(=S)(CCC)CCC
inactive: [1] 103 % of control | [2] 94 % of control
